In patent US8048901B2, “1,3-substituted cycloalkyl derivatives having acidic, mostly heterocyclic groups, processes for their preparation and their use as pharmaceuticals” (Aventis Pharma Deutschland GmbH, priority 2003, dated 2011) one finds EC50 data, which are given here for 8 compounds.

Each structure is given as a SMILES string. pEC50: −log10 of the molar value.

In the assay the target is T1, human PPARalpha (Homo sapiens, UniProt Q07869).
T1 construct: human PPARalpha receptor (amino acids S167-Y468); expressed in transfected cells; host or cells: HEK cells (human embryo kidney), stably transfected with a pcDNA3-based plasmid
T1 sequence (Q07869 167-468): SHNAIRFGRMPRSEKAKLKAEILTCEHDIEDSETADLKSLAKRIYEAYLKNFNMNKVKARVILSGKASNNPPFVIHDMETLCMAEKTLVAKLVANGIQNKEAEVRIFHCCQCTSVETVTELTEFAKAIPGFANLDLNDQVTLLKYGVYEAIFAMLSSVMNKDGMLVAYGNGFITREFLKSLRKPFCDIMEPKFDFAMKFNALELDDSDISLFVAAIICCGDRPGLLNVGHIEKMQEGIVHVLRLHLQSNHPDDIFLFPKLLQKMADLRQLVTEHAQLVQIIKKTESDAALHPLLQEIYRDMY
The experiment in a line: Cellular PPARalpha assay (stably transfected HEK PPARalpha reporter cell line, luciferase). The conditions noted are these: GR-GAL4-humanPPARalpha-LBD, luciferase readout. The format is cell-based. Here is the method: Determination of EC50 Values of PPAR Agonists in the Cellular PPARalpha Assay
The potency of substances which bind to human PPARalpha and activate in an agonistic manner is analyzed using a stably transfected HEK cell line (HEK=human embryo kidney) which is referred to here as PPARalpha reporter cell line. It contains two genetic elements, a luciferase reporter element (pdeltaM-GAL4-Luc-Zeo) and a PPARalpha fusion protein (GR-GAL4-humanPPARalpha-LBD) which mediates expression of the luciferase reporter element depending on a PPARalpha ligand. The stably and constitutively expressed fusion protein GR-GAL4-humanPPARalpha-LBD binds in the cell nucleus of the PPARalpha reporter cell line via the GAL4 protein portion to the GAL4 DNA binding motifs 5′-upstream of the luciferase reporter element which is integrated in the genome of the cell line. There is only little expression of the luciferase reporter gene without addition of a PPARalpha ligand if fatty acid-depleted fetal calf serum (cs-FCS) is used in the assay. PPARalpha ligands bind and activate the PPARalpha fusion protein and thereby bring about expression of the luciferase reporter gene. The luciferase which is formed can be detected by means of chemiluminescence via an appropriate substrate.
The PPARalpha reporter cell line was prepared in 2 stages. Firstly, the luciferase reporter element was constructed and stably transfected into HEK cells. For this purpose, five binding sites of the yeast transcription factor GAL4 (each 5′-CGGAGTACTGTCCTCCGAG-3′) (SEQ ID No. 1) were cloned in 5′-upstream of a 68 bp-long minimal MMTV promoter (Genbank Accession # V01175). The minimal MMTV promoter section contains a CCAAT box and a TATA element in order to enable efficient transcription by RNA polymerase II. The cloning and sequencing of the GAL4-MMTV construct took place in analogy to the description of Sambrook J. et. al. (Molecular cloning, Cold Spring Harbor Laboratory Press, 1989). Then the complete Photinus pyralis gene (Genbank Accession # M15077) was cloned in 3′-downstream of the GAL4-MMTV element. After sequencing, the luceriferase reporter element consisting of five GAL4 binding sites, MMTV promoter and luciferase gene was recloned into a plasmid which confers zeocin resistance in order to obtain the plasmid pdeltaM-GAL4-Luc-Zeo. This vector was transfected into HEK cells in accordance with the statements in Ausubel, F. M. et al. (Current protocols in molecular biology, Vol. 1-3, John Wiley & Sons, Inc., 1995).
In a second step, the PPARalpha fusion protein (GR-GAL4-humanPPARalpha-LBD) was introduced into the stable cell clone described. For this purpose, initially the cDNA coding for the N-terminal 76 amino acids of the glucocorticoid receptor (Genbank Accession # P04150) was linked to the cDNA section coding for amino acids 1-147 of the yeast transcription factor GAL4 (Genbank Accession # P04386). The cDNA of the ligand-binding domain of the human PPARalpha receptor (amino acids S167-Y468; Genbank Accession # S74349) was cloned in at the 3′-end of this GR-GAL4 construct. The fusion construct prepared in this way (GR-GAL4-humanPPARalpha-LBD) was recloned into the plasmid pcDNA3 (from Invitrogen) in order to enable constitutive expression therein by the cytomegalovirus promoter. This plasmid was linearized with a restriction endonuclease and stably transfected into the previously described cell clone containing the luciferase reporter element. The finished PPARalpha reporter cell line which contains a luciferase reporter element and constitutively expresses the PPARalpha fusion protein (GR-GAL4-human PPARalpha-LBD) was isolated by selection with zeocin (0.5 mg/ml) and G418 (0.5 mg/ml).
The activity of PPARalpha agonists is determined in a 3-day assay which is described below: […]
In the case of `Cc1cccc(-c2nc(CO[C@H]3CCC[C@@H](OCCOc4cccc(C)c4C(=O)O)C3)c(C)o2)c1` [Example XIV, (1R,3S)-2-Methyl-6-{2-[3-(5-methyl-2-m-tolyloxazol-4-ylmethoxy)cyclohexyloxy]ethoxy}benzoic acid], the pEC50 is 6.97.
The same measure for `CCc1ccc2c(c1)cc(C(=O)O)n2CCO[C@@H]1CCC[C@H](OCc2nc(-c3cccc(C)c3)oc2C)C1` [Example VII, (1R,3S)-5-Ethyl-1-{2-[3-(5-methyl-2-m-tolyloxazol-4-ylmethoxy)cyclohexyloxy]ethyl}-1H-indole-2-carboxylic acid]: 6.33.
The same measure for `Cc1cccc(-c2nc(CO[C@H]3CCC[C@@H](OCCOc4cc(C(F)(F)F)sc4C(=O)O)C3)c(C)o2)c1` [Example XXIII, (1R,3S)-3-{2-[3-(5-Methyl-2-m-tolyloxazol-4-ylmethoxy)cyclohexyloxy]ethoxy}-5-trifluoromethylthiophene-2-carboxylic acid]: 6.65; for `Cc1cccc(-c2nc(CO[C@H]3CCC[C@@H](OCCCNS(=O)(=O)C(F)(F)F)C3)c(C)o2)c1` [Example II, (1R,3S)—C,C,C-Trifluoro-N-{3-[3-(5-methyl-2-m-tolyloxazol-4-ylmethoxy)cyclohexyloxy]propyl}methanesulfonamide]: 6.48.
The figure for `Cc1ccc(-c2nc(CO[C@@H]3CCC[C@H](Cn4c(C(=O)O)cc5ccccc54)C3)c(C)o2)cc1` (racemic) [Example XXVI, 1-[(1S,3R)/(1R,3S)-3-(5-Methyl-2-p-tolyloxazol-4-ylmethoxy)cyclohexylmethyl]-1H-indole-2-carboxylic acid] is 7.62.
In turn, `COc1ccc2cc(C(=O)O)n(CCO[C@@H]3CCC[C@H](OCc4nc(-c5cccc(C)c5)oc4C)C3)c2c1` [Example XI, (1R,3S)-6-Methoxy-1-{2-[3-(5-methyl-2-m-tolyloxazol-4-ylmethoxy)cyclohexyloxy]ethyl}-1H-indole-2-carboxylic acid] showed a pEC50 of 6.44.
The same measure for `Cc1cccc(-c2nc(CO[C@H]3CCC[C@@H](OCCOc4cccc(C)c4[N+](=O)[O-])C3)c(C)o2)c1` [Example XXI, (1S,3R)-5-Methyl-4-{3-[2-(3-methyl-2-nitrophenoxy)ethoxy]cyclohexyloxymethyl}-2-m-tolyloxazole]: 6.28.
The same measure for `Cc1cccc(-c2nc(CO[C@H]3CCC[C@@H](OCCOc4ccccc4C(=O)O)C3)c(C)o2)c1` [Example XV, (1R,3S)-2-{2-[3-(5-Methyl-2-m-tolyloxazol-4-ylmethoxy)cyclohexyloxy]-ethoxy}benzoic acid]: 6.28.
